Our source for the IC50 values is patent US20170349593A1, “BTK INHIBITORS” (MERCK SHARP & DOHME CORP., priority 2014, published 2017).

The target of assay [1] is T1, BTK enzyme (recombinant full-length BTK, hBTK) (Homo sapiens, UniProt Q06187).
T1 construct: recombinant protein from baculovirus-transfected S 19 cells: full-length BTK, 6 HIS-tag cleaved; 6 HIS-tag (cleaved yes); made in house
Nature of the assay: Btk enzyme activity assay (LANCE TR-FRET). The note with it: 50 pM hBTK, 25 μM ATP, 60 minute compound and enzyme incubation, concentration range 1 μM to 0.017 nM, read-out: BTK binding IC50. Type of assay: biochemical. A general note: TR-FRET usually uses a lanthanide donor and a delayed reading to cut background.

Assay [2] concerns adenosine uptake into HeLa cells. Nature of the assay: [3H]Adenosine uptake assay. Type of assay: cell-based. The note with it: Homo sapiens; accumulation of [3H]adenosine into HeLa cells; concentration range 10 μM to 0.032 nM; read-out: ADU inhibition IC50. The method in brief:
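HeLa cells (25 000/well), plated overnight, were preincubated 30 minutes at ambient temperature with compound in HBSS + 5% FBS. Ten-point titrations ran from 10 μM to 0.032 nM final. [3H]adenosine was added from a 500 nM solution for 60 minutes, and uptake was measured by scintillation proximity counting; IC50 came from a 4-parameter fit.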

T1 sequence (Q06187 whole entry): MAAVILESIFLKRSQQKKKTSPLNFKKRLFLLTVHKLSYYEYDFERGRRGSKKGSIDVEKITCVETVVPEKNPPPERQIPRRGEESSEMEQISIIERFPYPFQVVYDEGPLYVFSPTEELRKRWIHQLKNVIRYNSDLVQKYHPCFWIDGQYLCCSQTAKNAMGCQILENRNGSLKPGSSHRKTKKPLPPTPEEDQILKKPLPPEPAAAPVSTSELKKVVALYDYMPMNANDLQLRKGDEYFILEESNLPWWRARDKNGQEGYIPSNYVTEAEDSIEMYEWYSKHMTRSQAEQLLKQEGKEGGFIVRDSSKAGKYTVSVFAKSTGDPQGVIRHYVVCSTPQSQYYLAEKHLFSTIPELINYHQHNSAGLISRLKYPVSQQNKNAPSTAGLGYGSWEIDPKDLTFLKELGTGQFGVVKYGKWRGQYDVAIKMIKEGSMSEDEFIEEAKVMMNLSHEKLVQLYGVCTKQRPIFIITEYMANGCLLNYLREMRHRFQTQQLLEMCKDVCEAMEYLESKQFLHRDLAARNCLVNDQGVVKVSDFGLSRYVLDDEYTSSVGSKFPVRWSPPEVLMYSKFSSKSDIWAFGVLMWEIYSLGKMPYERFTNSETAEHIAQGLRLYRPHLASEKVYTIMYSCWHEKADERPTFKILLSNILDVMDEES

Usually IC50 stands for the concentration that inhibits the measured activity by half. For the compound `C[C@H]1CC[C@@H](c2nc(-c3ccc(C(=O)Nc4cc(OC5CC5)ccn4)cc3)c3c(N)nccn23)CN1C(=O)N(C)C` [Example 90, (2S,5R)-5-[8-amino-1-(4-{[4-(cyclopropyloxy)pyridin-2-yl]carbamoyl}phenyl)imidazo[1,5-a]pyrazin-3-yl]-N,N,2-trimethylpiperidine-1-carboxamide], the results for the half-maximal inhibitory concentration (IC50) in assay [1] and in assay [2] were 0.448 nM and 14 nM, respectively.

Take `C[C@H](O)C(=O)N1C[C@H](c2nc(-c3ccc(C(=O)Nc4cc(C5CC5)ccn4)cc3)c3c(N)nccn23)CC[C@@H]1C` [Example 91, 4-(8-amino-3-{(3R,6S)-1-[(2S)-2-hydroxypropanoyl]-6-methylpiperidin-3-yl}imidazo[1,5-a]pyrazin-1-yl)-N-(4-cyclopropylpyridin-2-yl)benzamide]: the IC50 was 0.295 nM in assay [1] and 40.1 nM in assay [2].

`C[C@H]1CC[C@@H](c2nc(-c3ccc(C(=O)Nc4cc(C(F)F)ccn4)cc3)c3c(N)nccn23)CN1C(=O)N(C)C` [Example 92, (2S,5R)-5-[8-amino-1-(4-{[4-(difluoromethyl)pyridin-2-yl]carbamoyl}phenyl)imidazo[1,5-a]pyrazin-3-yl]-N,N,2-trimethylpiperidine-1-carboxamide]: the IC50 came out at 0.215 nM in assay [1] and 22.4 nM in assay [2].

On to `C[C@H]1CC[C@@H](c2nc(-c3ccc(C(=O)Nc4cc(C(F)F)ccn4)cc3)c3c(N)nccn23)CN1C(=O)C1(O)CC1` [Example 93, 4-(8-amino-3-{(3R,6S)-1-[(1-hydroxycyclopropyl)carbonyl]-6-methylpiperidin-3-yl}imidazo[1,5-a]pyrazin-1-yl)-N-[4-(difluoromethyl)pyridin-2-yl]benzamide], for which the IC50 is 0.248 nM in assay [1] and 37.1 nM in assay [2].

Regarding `C[C@H]1CC[C@@H](c2nc(-c3ccc(C(=O)Nc4cc(C(C)(F)F)ccn4)cc3)c3c(N)nccn23)CN1C(=O)CO` [Example 95, 4-{8-amino-3-[(3R,6S)-1-(hydroxyacetyl)-6-methylpiperidin-3-yl]imidazo[1,5-a]pyrazin-1-yl}-N-[4-(1,1-difluoroethyl)pyridin-2-yl]benzamide], the values for the IC50 in assay [1] and in assay [2] were 0.168 nM and 175 nM, respectively.

Take `C[C@H]1CC[C@@H](c2nc(-c3ccc(C(=O)Nc4cc(C(C)(F)F)ccn4)cc3)c3c(N)nccn23)CN1C(=O)N(C)C` [Example 96, (2S,5R)-5-[8-amino-1-(4-{[4-(1,1-difluoroethyl)pyridin-2-yl]carbamoyl}phenyl)imidazo[1,5-a]pyrazin-3-yl]-N,N,2-trimethylpiperidine-1-carboxamide]: the IC50 in assay [1] was found to be 0.168 nM; in assay [2], 69.8 nM.

Turning to `COCC(=O)N1C[C@H](c2nc(-c3ccc(C(=O)Nc4cc(C(C)(F)F)ccn4)cc3)c3c(N)nccn23)CC[C@@H]1C` [Example 97, 4-{8-amino-3-[(3R,6S)-1-(methoxyacetyl)-6-methylpiperidin-3-yl]imidazo[1,5-a]pyrazin-1-yl}-N-[4-(1,1-difluoroethyl)pyridin-2-yl]benzamide], the IC50 was found to be 0.327 nM in assay [1] and 129 nM in assay [2].

As for `CCOc1cc(C(=O)Nc2cc(C(F)(F)F)ccn2)ccc1-c1nc([C@H]2CN(C(=O)[C@H](C)O)[C@@H](C)CO2)n2ccnc(N)c12` [Example 98, 4-(8-amino-3-{(2R,5S)-4-[(2S)-2-hydroxypropanoyl]-5-methylmorpholin-2-yl}imidazo[1,5-a]pyrazin-1-yl)-3-ethoxy-N-[4-(trifluoromethyl)pyridin-2-yl]benzamide], the figures for the IC50 in assay [1] and in assay [2] were 1.74 nM and 1610 nM, respectively.

For the compound `CCOc1cc(C(=O)Nc2cc(C(F)(F)F)ccn2)ccc1-c1nc([C@H]2CN(C(=O)[C@H](C)O)[C@@H](C)CO2)n2c(CC)cnc(N)c12` [Example 99, 4-(8-amino-5-ethyl-3-{(2R,5S)-4-[(2S)-2-hydroxypropanoyl]-5-methylmorpholin-2-yl}imidazo[1,5-a]pyrazin-1-yl)-3-ethoxy-N-[4-(trifluoromethyl)pyridin-2-yl]benzamide], the figures for the IC50 in assay [1] and in assay [2] were 0.788 nM and 1990 nM, respectively.

On to `C[C@H](O)C(=O)N1C[C@H](c2nc(-c3ccc(C(=O)Nc4cc(C(F)(F)F)ccn4)cc3Cl)c3c(N)ncc(Cl)n23)OC[C@@H]1C` [Example 100, 4-(8-amino-5-chloro-3-{(2R,5S)-4-[(2S)-2-hydroxypropanoyl]-5-methylmorpholin-2-yl}imidazo[1,5-a]pyrazin-1-yl)-3-chloro-N-[4-(trifluoromethyl)pyridin-2-yl]benzamide], for which the IC50 in assay [1] worked out at 0.65 nM; in assay [2], 663 nM.

As to `CCOc1cc(C(=O)Nc2cc(C(F)(F)F)ccn2)cc(F)c1-c1nc([C@H]2CN(C(=O)[C@H](C)O)[C@@H](C)CO2)n2c(Cl)cnc(N)c12` [Example 101, 4-(8-amino-5-chloro-3-{(2R,5S)-4-[(2S)-2-hydroxypropanoyl]-5-methylmorpholin-2-yl}imidazo[1,5-a]pyrazin-1-yl)-3-ethoxy-5-fluoro-N-[4-(trifluoromethyl)pyridin-2-yl]benzamide], the IC50 in assay [1] amounted to 0.665 nM; in assay [2], 2720 nM.

For `CCOc1cc(C(=O)Nc2cc(C(F)(F)F)ccn2)ccc1-c1nc([C@H]2CN(C(=O)C3CC3(F)F)[C@@H](C)CO2)n2c(Cl)cnc(N)c12` (stereo partly drawn) [Example 102, 4-(8-amino-5-chloro-3-{(2R,5S)-4-[(2,2-difluorocyclopropyl)carbonyl]-5-methylmorpholin-2-yl}imidazo[1,5-a]pyrazin-1-yl)-3-ethoxy-N-[4-(trifluoromethyl)pyridin-2-yl]benzamide], the figures for the IC50 in assay [1] and in assay [2] were 3.12 nM and 5930 nM, respectively.

In the case of `CCOc1cc(C(=O)Nc2cc(C(F)(F)F)ccn2)ccc1-c1nc([C@H]2CN(C(=O)C3(C#N)CC3)[C@@H](C)CO2)n2c(Cl)cnc(N)c12` [Example 103, 4-(8-amino-5-chloro-3-{(2R,5S)-4-[(1-cyanocyclopropyl)carbonyl]-5-methylmorpholin-2-yl}imidazo[1,5-a]pyrazin-1-yl)-3-ethoxy-N-[4-(trifluoromethyl)pyridin-2-yl]benzamide], the IC50 was 1.92 nM in assay [1] and 5580 nM in assay [2].

As for `CCOc1cc(C(=O)Nc2cc(C(F)(F)F)ccn2)ccc1-c1nc([C@H]2CN(C(=O)CCOC)[C@@H](C)CO2)n2c(Cl)cnc(N)c12` [Example 104, 4-{8-amino-5-chloro-3-[(2R,5S)-4-(3-methoxypropanoyl)-5-methylmorpholin-2-yl]imidazo[1,5-a]pyrazin-1-yl}-3-ethoxy-N-[4-(trifluoromethyl)pyridin-2-yl]benzamide], the IC50 in assay [1] amounted to 1.33 nM; in assay [2] it was 6150 nM.

Turning to `CCOc1cc(C(=O)Nc2cc(C(F)(F)F)ccn2)c(F)cc1-c1nc([C@H]2CN(C(=O)C3CC3)[C@@H](C)CO2)n2c(Cl)cnc(N)c12` [Example 105, 4-{8-amino-5-chloro-3-[(2R,5S)-4-(cyclopropylcarbonyl)-5-methylmorpholin-2-yl]imidazo[1,5-a]pyrazin-1-yl}-5-ethoxy-2-fluoro-N-[4-(trifluoromethyl)pyridin-2-yl]benzamide], the IC50 amounted to 2.52 nM in assay [1] and 5160 nM in assay [2].
